Experimental data published in patent US5116816A, “Cyclosporin peptolides having an α-hydroxycarboxylic acid at position 8” (Sandoz Ltd., priority 1987, dated 1992).

Tested on: UV erythema
Assay: UV Erythema test
Assay type: in vivo, guinea pigs
Settings: topical solution, erythema estimated four hours after application
Experimental: The test is carried out on female albino guinea pigs, approx. 150 g wt. The animals are shaved on both flanks using a Braun micro razor, without causing skin irritation. For each test substance five animals are subjected to a defined intensity of UV radiation for 10 seconds on each of four areas of skin (10 mm diameter). Immediately afterwards 50 microliters of a solution of the test substance in ethanol/propylene glycol/dimethylacetamide (19:19:2 v/v) is applied to two of the irradiated areas on each animal and 50 microliters of the solvent mixture to the other two as controls. Four hours after application, the degree of erythema is estimated visually.

COc1ccc2c(c1)c(CC(=O)O)c(C)n2C(=O)c1ccc(Cl)cc1 [indomethacin]
effective concentration in UV-erythema test: 2.5%
